In patent publication US10087139B2, “3-Phenylisoserine derivative production method” (Toray Fine CHhemicals Co., Ltd., priority 2015, dated 2018):
Values belong to the compound of their own block, whether it stands above or below them.

Experiments:
[1] = Solubility of N-protected-3-phenylisoserine in the extraction solvents; type: physicochemical
Protocol: (§1) The same operation as in Example 1 was carried out except that toluene was used instead of tetrahydrofuran as the extraction solvent in the extraction step of Example 1. As a result, (2R,3S)—N-benzoyl-3-phenylisoserine as an intermediate could be hardly extracted into the organic layer. To evaluate the performance of the extraction solvent, solubility of (2R,3S)—N-benzoyl-3-phenylisoserine was investigated for comparison.
as §1, with “cyclopentyl methyl ether” for “toluene”
as §1, with “methyl-tert-butyl ether” for “toluene”
as §1, with “acetonitrile” for “toluene”

[2] = as above; type: physicochemical; conditions: solvent 1,2-dimethoxyethane
[3] = solvent cyclopentyl methyl ether
[4] = solvent methyl-tert-butyl ether

SMILES: COC(=O)[C@H](O)[C@@H](NC(=O)OC(C)(C)C)c1ccccc1 [Example 2, (2R,3S)—N-tert-butoxycarbonyl-3-phenylisoserine methyl ester]
melting point: 131 to 133 °C

Solubility (20° C.) ([1]; solvent acetonitrile): 2.2 wt %
Solubility (40° C.) ([1]; solvent acetonitrile): 2.9 wt %
Solubility (20° C.) [1, 3]: 0.4 wt %
Solubility (40° C.) [1, 3]: 0.4 wt %
Solubility (20° C.) [1, 4]: 0.2 wt %
Solubility (40° C.) [1, 4]: 0.4 wt %
Solubility (20° C.) ([1]; solvent tetrahydrofuran): 9.2 wt %
Solubility (40° C.) ([1]; solvent tetrahydrofuran): 11.6 wt %
Solubility (20° C.) ([1]; solvent toluene): <0.1 wt %
Solubility (40° C.) ([1]; solvent toluene): <0.1 wt %
Solubility (20° C.) ([2]; 20° C.): 12.7 wt %
Solubility (40° C.) ([2]; 40° C.): 13.6 wt %
SMILES: O=C(N[C@@H](c1ccccc1)[C@@H](O)C(=O)O)c1ccccc1 [(2R,3S)—N-benzoyl-3-phenylisoserine]

melting point: 183 to 185 °C
SMILES: COC(=O)[C@H](O)[C@@H](NC(=O)c1ccccc1)c1ccccc1 [Example 1, (2R,3S)—N-benzoyl-3-phenylisoserine methyl ester]

SMILES: CC(C)(C)OC(=O)NC(c1ccccc1)C(O)C(=O)O (stereo not shown) [N-tert-butoxycarbonyl-3-phenylisoserine]
Solubility (20° C.) ([1]; solvent tetrahydrofuran): 10.1 wt %
Solubility (40° C.) ([1]; solvent tetrahydrofuran): 12.2 wt %
